Reference: PubChem BioAssay AID1918946 (Molecular Pharmacology Branch, DTP, NCI, 2023)

Tested on: 885512-296-R-J2-PDC complex spheroid viability
Assay: Anticancer human tumor 885512-296-R-J2-PDC patient-derived breast carcinoma cell line growth inhibition
Conditions: for IC50: curve of first compound; for viability, T/C: stronger effect = lower value
In short: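 Complex spheroids of tumor cells with HUVEC and human MSCs, exposed to iadademstat combined with other agents. Each agent tested in half-log steps from near clinical Cmax (else 10 microM top), DMSO ≤0.25%.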

[1] = second compound 0.1 µM, first compound 0.0316 µM
[2] = second compound 0.1 µM, first compound 0.1 µM
[3] = second compound 0.1 µM, first compound 0.316 µM
[4] = second compound 0.1 µM, first compound 1 µM
[5] = second compound 0.1 µM, first compound 3.16 µM
[6] = second compound 0.1 µM, first compound 10 µM
[7] = second compound 0.316 µM, first compound 0.0316 µM
[8] = second compound 0.316 µM, first compound 0.1 µM
[9] = second compound 0.316 µM, first compound 0.316 µM
[10] = second compound 0.316 µM, first compound 1 µM
[11] = second compound 0.316 µM, first compound 3.16 µM
[12] = second compound 0.316 µM, first compound 10 µM
[13] = second compound 1 µM, first compound 0.0316 µM
[14] = second compound 1 µM, first compound 0.1 µM
[15] = second compound 1 µM, first compound 0.316 µM
[16] = second compound 1 µM, first compound 1 µM
[17] = second compound 1 µM, first compound 3.16 µM
[18] = second compound 1 µM, first compound 10 µM
[19] = second compound 3.16 µM, first compound 0.0316 µM
[20] = second compound 3.16 µM, first compound 0.1 µM
[21] = second compound 3.16 µM, first compound 0.316 µM
[22] = second compound 3.16 µM, first compound 1 µM
[23] = second compound 3.16 µM, first compound 3.16 µM
[24] = second compound 3.16 µM, first compound 10 µM
[25] = second compound 10 µM, first compound 0.0316 µM
[26] = second compound 10 µM, first compound 0.1 µM
[27] = second compound 10 µM, first compound 0.316 µM
[28] = second compound 10 µM, first compound 1 µM
[29] = second compound 10 µM, first compound 3.16 µM
[30] = second compound 10 µM, first compound 10 µM
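Note: spheroids exposed to agents for 7 days before viability read.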

Structure (SMILES)	IC50 (second compound 0.1 µM) [µM]	IC50 (second compound 0.316 µM) [µM]	IC50 (second compound 1 µM) [µM]	IC50 (second compound 3.16 µM) [µM]	IC50 (second compound 10 µM) [µM]	viability, T/C [1] [%]	viability, T/C [2] [%]	viability, T/C [3] [%]	viability, T/C [4] [%]	viability, T/C [5] [%]	viability, T/C [6] [%]	viability, T/C [7] [%]	viability, T/C [8] [%]	viability, T/C [9] [%]	viability, T/C [10] [%]	viability, T/C [11] [%]	viability, T/C [12] [%]	viability, T/C [13] [%]	viability, T/C [14] [%]	viability, T/C [15] [%]	other results
CC1(C)CCC(CN2CCN(c3ccc(C(=O)NS(=O)(=O)c4ccc(NCC5CCOCC5)c([N+](=O)[O-])c4)c(Oc4cnc5[nH]ccc5c4)c3)CC2)=C(c2ccc(Cl)cc2)C1 + NC1CCC(NC2CC2c2ccccc2)CC1	4.99	4.83	4.9	4.94	3.84	106	109	115	98.9	72.8	15.8	112	116	120	90.1	72.2	16	110	115	116	viability, T/C [16]: 93.4%; viability, T/C [17]: 73.1%; viability, T/C [18]: 14.7%; viability, T/C [19]: 111%; viability, T/C [20]: 107%; viability, T/C [21]: 114%; viability, T/C [22]: 98.7%; viability, T/C [23]: 71%; viability, T/C [24]: 17.4%; viability, T/C [25]: 84.3%; viability, T/C [26]: 82.8%; viability, T/C [27]: 77.9%; viability, T/C [28]: 87.4%; viability, T/C [29]: 56.2%; viability, T/C [30]: 19.9%
CC1COCCN1c1cc(C2(S(C)(=N)=O)CC2)nc(-c2ccnc3[nH]ccc23)n1 (stereo not given) + NC1CCC(NC2CC2c2ccccc2)CC1	0.166	0.155	0.166	0.119	0.124	98.8	77.3	15.1	7.78	9.98	4.57	94.7	71.4	15.3	4.43	4.53	7.27	98.8	75.8	17.4	viability, T/C [16]: 5.72%; viability, T/C [17]: 7%; viability, T/C [18]: 4.61%; viability, T/C [19]: 108%; viability, T/C [20]: 56.5%; viability, T/C [21]: 13.4%; viability, T/C [22]: 5.73%; viability, T/C [23]: 4.8%; viability, T/C [24]: 4.21%; viability, T/C [25]: 84.5%; viability, T/C [26]: 59.1%; viability, T/C [27]: 9.91%; viability, T/C [28]: 3.2%; viability, T/C [29]: 3.14%; viability, T/C [30]: 1.66%
